US12617770B2, “IRAK inhibitor and preparation method therefor and use thereof” (WUHAN CREATERNA SCIENCE AND TECHNOLOGY CO., LTD., priority 2019, dated 2026)

Experiments:
[1] = target: T1, hERG potassium ion channel (Homo sapiens, UniProt Q12809); experiment: hERG whole-cell patch clamp in HEK-293 cell line stably expressing hERG; assay type: cell-based; conditions: HEK-293 cells stably expressing hERG, pH 7.4, HEK-293 cells expressing hERG, mean ± spread
T1 construct: expressed in transfected cells; host or cells: HEK-293
T1 sequence (Q12809 whole entry): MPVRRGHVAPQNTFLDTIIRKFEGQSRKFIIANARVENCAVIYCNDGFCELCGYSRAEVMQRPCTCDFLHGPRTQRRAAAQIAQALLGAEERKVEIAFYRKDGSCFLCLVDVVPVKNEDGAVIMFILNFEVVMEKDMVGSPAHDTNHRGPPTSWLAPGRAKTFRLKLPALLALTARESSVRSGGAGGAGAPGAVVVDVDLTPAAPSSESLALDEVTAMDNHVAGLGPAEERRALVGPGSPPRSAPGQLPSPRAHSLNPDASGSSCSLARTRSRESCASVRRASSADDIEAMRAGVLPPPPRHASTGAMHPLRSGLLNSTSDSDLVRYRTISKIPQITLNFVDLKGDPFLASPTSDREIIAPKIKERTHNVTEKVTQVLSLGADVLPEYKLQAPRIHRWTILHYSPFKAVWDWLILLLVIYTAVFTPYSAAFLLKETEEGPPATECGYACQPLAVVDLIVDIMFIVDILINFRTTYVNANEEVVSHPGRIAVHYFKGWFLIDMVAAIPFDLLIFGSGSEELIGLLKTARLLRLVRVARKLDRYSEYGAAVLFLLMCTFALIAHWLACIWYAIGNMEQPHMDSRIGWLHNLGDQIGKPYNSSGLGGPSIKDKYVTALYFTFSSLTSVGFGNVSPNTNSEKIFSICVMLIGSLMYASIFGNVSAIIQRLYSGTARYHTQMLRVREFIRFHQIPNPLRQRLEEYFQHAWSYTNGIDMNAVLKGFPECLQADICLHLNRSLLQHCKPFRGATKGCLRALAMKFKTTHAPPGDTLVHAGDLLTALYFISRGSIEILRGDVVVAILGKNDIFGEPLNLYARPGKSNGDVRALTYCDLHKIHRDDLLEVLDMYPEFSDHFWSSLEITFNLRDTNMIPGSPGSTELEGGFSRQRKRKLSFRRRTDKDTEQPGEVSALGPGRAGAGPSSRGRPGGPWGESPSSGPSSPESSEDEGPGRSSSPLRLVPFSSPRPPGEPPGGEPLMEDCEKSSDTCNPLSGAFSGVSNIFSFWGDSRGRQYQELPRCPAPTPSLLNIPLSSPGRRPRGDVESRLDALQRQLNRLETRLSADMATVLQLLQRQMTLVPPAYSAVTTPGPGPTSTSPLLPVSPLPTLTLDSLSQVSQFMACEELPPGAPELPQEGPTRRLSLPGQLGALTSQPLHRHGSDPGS
Protocol: The working solutions of the test compounds were ultrasonically treated for 20 min.
Patch clamping: Under an inverted microscope, recording electrodes were controlled by micromanipulator to contact with the cell. A negative voltage was applied to create a G-omega shaped connection. After forming the G-omega shaped connection, a rapid capacitance compensation was given. Under the continuous negative voltage, the cell membrane was ruptured to form a whole-cell recording configuration. In the whole-cell recording configuration, slow capacitance compensation was given, and the values of membrane capacitance and series resistance were recorded. […]
The cover glasses planted with cells were placed in the recording chamber of an inverted microscope. […] The current detected in a cell in the negative control was used as the background for the cell. […]
[formula] Basic statistics were calculated for each concentration, including mean, standard deviation (SD), standard error (SE), and replicates (n). The dose-dependent curve was fitted with the following equation and the half maximal inhibitory concentration (IC50) of the test compounds was calculated: […]

human IRAK4 = target: T2, human IRAK4 (Homo sapiens, UniProt Q9NWZ3); experiment: IRAK4 MSA (Mobility-Shift Assay) at Km concentration of ATP; assay type: biochemical; conditions: GST-IRAK4 1 nM, ATP 37 μM (Km); read-out: IC50 for inhibiting human IRAK4 activity
T2 construct: purchased Cama (so in the source)
T2 sequence (Q9NWZ3 1-460): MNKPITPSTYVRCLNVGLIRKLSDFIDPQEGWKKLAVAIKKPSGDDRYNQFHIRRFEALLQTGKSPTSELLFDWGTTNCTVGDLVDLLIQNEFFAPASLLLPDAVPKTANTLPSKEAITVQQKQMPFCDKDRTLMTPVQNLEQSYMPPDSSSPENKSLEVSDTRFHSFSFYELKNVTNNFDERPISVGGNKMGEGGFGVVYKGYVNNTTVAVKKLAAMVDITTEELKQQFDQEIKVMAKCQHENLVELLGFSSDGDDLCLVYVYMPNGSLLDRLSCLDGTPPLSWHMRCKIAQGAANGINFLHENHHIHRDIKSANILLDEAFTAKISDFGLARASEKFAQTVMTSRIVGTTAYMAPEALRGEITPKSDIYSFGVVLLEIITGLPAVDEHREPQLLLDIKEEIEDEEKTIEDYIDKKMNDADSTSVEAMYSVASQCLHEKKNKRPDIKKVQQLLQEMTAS
Protocol: A recombinant fusion protein of N-terminal GST (glutathione-S-transferase) and human IRAK4 was used as enzyme (GST-IRAK4, kinase IRAK4 (Cama, CAT No. 09-145)) at a final concentration of 1 nM; ATP (Sigma. CAT No. A7699-1G) was at a final concentration of 37 μM; • the substrates used for the kinase reaction were 5-FAM (5-carboxyfluorescein)-labeled polypeptide (5-FAM-[…]-COOH) and substrate peptide FAM-P8 (GL Biochem, CAT No. 112396) at final concentrations of 5 μM.
In this assay, 500 μM stock solutions of the compounds were prepared in 100% DMSO, and serially 4-fold diluted to the 10th concentration gradient with 100% DMSO, followed by a 10-fold dilution in the compound buffer (50 mM HEPES, pH 7.5, 0.00015% Brij-35) to give intermediate dilutions of the compounds at a final concentration of 10 μM−0.04 nM containing 10% DMSO. 5 μL of the intermediate dilution was transferred into a black 384-well plate.
IRAK4 was diluted to 2.5 nM in the kinase buffer (50 mM HEPES, pH 7.5, 0.00015% Brij-35, 2 mM DTT). 10 μL of the IRAK4 dilution was transferred to the 384-well plate and co-incubated with the compound for 10-15 min.
The substrate and ATP were diluted to 12.5 μM and 92.5 μM with reaction buffer (50 mM HEPES, pH 7.5, 0.00015% Brij-35, 10 mM MgCl2), respectively. 10 μL of the dilution was transferred to a 384-well plate and incubated at 28° C. for 1 h. The reaction was terminated by adding 25 μL of 50 mM EDTA to the 384-well plate.
The inhibition rate of IRAK4 by the compounds was calculated by measuring the rate of phosphorylated substrate using a Caliper EZ Reader (PerkinElmer) and the IC50 was calculated by XL-fit software. […] In particular, some exemplary compound activity values are as follows: […]

CYP3A4 = target: T3, CYP3A4 (Homo sapiens, UniProt P08684); experiment: CYP450 inhibition in human liver microsomes, CYP3A4-M; assay type: in vitro ADME; conditions: pooled (mixed) human liver microsomes, probe midazolam; human liver microsomes, midazolam; read-out: CYP3A4 IC50
T3 construct: The test compounds were co-incubated with the human liver microsomes and a probe substrate midazolam (CYP3A4); tissue Corning (USA); host or cells: mixed (pooled) human liver microsomes
T3 sequence (P08684 whole entry): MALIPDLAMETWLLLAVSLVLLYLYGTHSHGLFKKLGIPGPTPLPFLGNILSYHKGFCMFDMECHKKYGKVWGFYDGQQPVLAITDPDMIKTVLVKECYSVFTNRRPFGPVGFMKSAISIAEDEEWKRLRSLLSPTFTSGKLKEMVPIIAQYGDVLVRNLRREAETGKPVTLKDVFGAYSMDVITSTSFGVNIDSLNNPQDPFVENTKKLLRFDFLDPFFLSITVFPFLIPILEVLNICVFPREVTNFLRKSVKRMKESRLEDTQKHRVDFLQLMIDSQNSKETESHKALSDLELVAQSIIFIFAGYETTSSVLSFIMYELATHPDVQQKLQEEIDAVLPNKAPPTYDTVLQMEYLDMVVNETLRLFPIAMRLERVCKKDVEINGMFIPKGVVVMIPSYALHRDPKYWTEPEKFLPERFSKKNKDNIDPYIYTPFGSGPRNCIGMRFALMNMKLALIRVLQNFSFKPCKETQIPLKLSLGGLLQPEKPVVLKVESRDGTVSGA
Protocol: This study was intended to investigate the inhibitory effect of the test compounds on 5 major enzymes in human P450 superfamily, CYP1A2, 2C9, 2C19, 2D6 and 3A4-M. The mixed human liver microsomes used in this assay were purchased from Corning (USA). The test compound (compound 14) was co-incubated at 7 concentrations with human liver microsomes and five probe substrates (phenacetin for CYP1a2, diclofenac for CYP2C9, mephenytoin for CYP2C19, dextromethorphan for CYP2D6, midazolam for CYP3A4-M, mixed). The reaction was initiated by adding coenzyme NADPH, and terminated by adding acetonitrile containing internal standard. After the proteins were precipitated, the supernatant was centrifuged. The characteristic metabolites in the supernatant (acetaminophen for CYP1A2, 4-hydroxydiclofenac for CYP2C9, 4-hydroxymephenytoin for CYP2C19, dextrorphan for CYP2D6, 1-hydroxymidazolam for CYP3A4-M) were analyzed by LC-MS/MS. The influence of the test compounds on production of the characteristic metabolites was finally analyzed on the basis of the data obtained. A selective inhibitor (ketoconazole for CYP3A4-M) may be used as positive control. All samples were tested in duplicate.

IC50 (human IRAK4)	IC50 (CYP3A4)	SMILES	inhibition at 5 min, 30 µM [1]
6 nM	> 30000 nM	COc1cc2nn([C@H]3CC[C@](C)(O)CC3)cc2cc1NC(=O)c1cccc(C)[n+]1[O-] [Compound 001, 2-((2-((1r,4r)-4-hydroxy-4-methylcyclohexyl)-6-methoxy-2H-indazol-5-yl)carbamoyl)-6-methylpyridine 1-oxide]	5.09%
23 nM	> 30000 nM	COc1cc2nn(CCC(C)(C)O)cc2cc1NC(=O)c1cccc(C)[n+]1[O-] [Compound 163, 2-((2-(3-hydroxy-3-methylbutyl)-6-methoxy-2H-indazol-5-yl)carbamoyl)-6-methylpyridine 1-oxide]	8.73%
